Key:
Format in all cases: cell-based, BALB/c mouse
[1] = test system: Th1 clone H1; assay: BUdR incorporation ELISA proliferation assay, Th1 clone H1; settings: Table 12; 100 ng/well, APC, 100 U/ml IL-2; two values given
Method: (§1) The epitopes recognized by 15 iLRP-reactive T cell clones derived from either naive BALB/c mice, BALB/c mice bearing MCA1315 fibrosarcoma tumors, or from BALB/c mice immunized with either 1 or 10 μg of recombinant murine iLRP were determined by testing the proliferation of those clones to overlapping peptides spanning the region of the iLRP molecule recognized by each clone in the presence of IL-2, as a growth factor for T cells and irradiated, T cell-depleted, syngeneic spleen cells as antigen-presenting cells. Proliferation was measured through ELISA determination of 5-bromodeoxyuridine incorporation during culture.
(§2) More specifically, the epitope-specificity of the iLRP-specific Th1, Tc, and Ts clones was determined using a modification of the 5′-bromodeoxyuridine (BudR) incorporation ELISA technique described in Rohrer, J. W., A. L. Barsoum, D. L. Dyess, J. A. Tucker, and J. H. Coggin, Jr. 1999. Human breast carcinoma patients develop clonable oncofetal antigen-specific effector and regulatory T lymphocytes. J. Immunol. 162:6880, using the Biotrak BUdR incorporation assay (Amersham, Arlington Heights, Ill.). […] When the required color density was reached, the reaction was stopped by adding 25 μl of 1M sulfuric acid to each well and the plate read on a microELISA reader at 450 nm. […]

[2] = test system: Th1 clone L3; assay: BUdR incorporation ELISA proliferation assay, Th1 clone L3; settings: Table 12
Method: as §1, §2

[3] = test system: Th1 Clone NC1; assay: BUdR incorporation ELISA proliferation assay, Th1 clone NC1; settings: Table 11
Method: as §1, §2

[4] = test system: Tc Clone L2; assay: BUdR incorporation ELISA proliferation assay, Tc clone L2; settings: Table 11
Method: as §1, §2

[5] = test system: Th1 clone M2; assay: BUdR incorporation ELISA proliferation assay, Th1 clone M2; settings: Table 12
Method: as §1, §2

[6] = test system: Th1 clone NC4; assay: BUdR incorporation ELISA proliferation assay, Th1 clone NC4; settings: Table 12
Method: as §1, §2

AQPEVADWSEGV [P21 (241-252)]
Proliferation Results (A450) of Th1 Clone H1 [1]: .02, .02 A450 | Response of clone L3 (in words) [2]: responded best

GEWTAPAPEFTA [P18 (229-240)]
Response of Th1 clone NC1 (in words) [3]: responded best | Proliferation of CD8 Tc clone L2 (in words) [4]: proliferated identically

QVPSVPIQQFPT [P24 (253-264)]
Response of clone M2 (in words) [5]: responded best

TAQATEWVGATT [P31 (281-292)]
Proliferation Results (A450) of Th1 Clone L3 ([2]; 100 ng/well, APC, 100 U/ml IL-2, two values given): .02, .02 A450

TEWVGATTDWS [P32 (285-295)]
Response of clone NC4 (in words) [6]: responded best

— patent US8709405B2, “Cancer vaccines containing epitopes of oncofetal antigen” (South Alabama Medical Science Foundation, priority 2002, dated 2014)
